In US20260297060A1, “COMPOUNDS FOR THE DEGRADATION OF MUTANT BRAF” (C4 THERAPEUTICS, INC., priority 2023, published 2026):

Key:
[1] = test system: A375 human melanoma cancer cell derived xenografts, intracranial; experiment: Example 12 efficacy study, intracranial A375-luciferase CNS model: survival; format: in vivo, BALB/c nude mice; conditions: 10 mg/kg PO/BID; for survival rate / mice that have demonstrated end point cut offs and were terminated: as of day 75; for median survival: dosing stopped on day 120, survival curve up to 200 days; for mice that have demonstrated end point cut offs and were terminated: groups of 8 mice
Experimental: For the efficacy study, agents were tested in A375 human melanoma cancer cell derived xenografts (CDX). This cell line was isolated from the primary melanoma of a person and is known to have a homozygous BRAF V600E mutation. The A375 tumor cells were maintained in vitro in DMEM medium supplemented with 10% fetal bovine serum and 1% Penicillin-Streptomycin at 37° C. in an atmosphere of 5% CO2 in air. The tumor cells were routinely subcultured twice weekly. The cells growing in an exponential growth phase were harvested and counted for tumor inoculation.
For this CNS study, A375 cells with a luciferase tag for tracking tumor cell signal, were injected intracranially into 6-8-week-old female BALB/c nude mice (Zhejiang Vital River Laboratory Animal Co., LTD. Beijing, China). The mice were anaesthetized, restrained, and sterilized prior to surgery. A sagittal cut was made above the anterior parietal and occipital bone with sterilized scalpel, the skull was unrevealed and cleaned with cotton bud, in this case the anterior fontanel could be available. A 2 mm hole was created to the right of the anterior fontanel and 0.5 mm ahead of the coronal on the skull with a cranial drill. Cell suspensions in 20% Matrigel were mixed and aspirated into injector carefully to avoid bubbles and wiped to avoid extracranial tumor genesis. The needle was inserted vertically into the cranial hole and the cell mixture was slowly injected for 2 minutes and held for another minute to decrease the drainage of the cell suspension. The wound was closed, and a subcutaneous injection of 5 mg/kg Meloxicam was given to relieve the pain and continued for 3 days. The mice were monitored closely until they woke up after the surgery. During the study, the care and use of animals was conducted in accordance with the regulations of the Association for Assessment and Accreditation of Laboratory Animal Care (AAALAC). After inoculation, the animals were checked daily for morbidity and mortality. At the time of routine monitoring, the animals would be checked for any effects of tumor growth and treatments on normal behavior such as mobility, food and water consumption, body weight gain/loss, eye/hair matting, and any other abnormal effect.
The administration of the test agents began three days after inoculation. CNS tumor-bearing mice were randomly assigned to groups of 8 mice and administered Compound 26 at 10 mg/kg orally (PO) twice a day (BID), Compound 141 at 10 mg/kg PO/BID, encorafenib at 35 mg/kg once a day orally, (PO/QD), or the vehicle alone PO/BID. Measurements for the presence of the A375 luciferase (CRL-1619-LUC2, ATCC, Manassas, VA, USA) cells within the CNS were done with IVIS Lumina III machine. Images were collected twice weekly to follow the growth of the models. The tumor-bearing mice were weighed and intraperitoneally administered luciferin (Perkin Elmer Inc-122799) at a dosage of 150 mg/kg. After 10 min, mice were pre-anesthetized with the mixture gas of oxygen and isoflurane. The bioluminescence value at 15 min post luciferin injection was recorded as the final value and plotted. The endpoint for individual mice was reached when the mouse body weight decreased by 20% when compared to their starting weight.

BRAF V600E = experiment: Pharmacodynamics of BRAF protein degradation in inoculated CNS tumors (Example 12); format: in vivo, human A375 CNS xenograft in mice; conditions: CNS tumor-bearing mice, after administration, versus encorafenib, FIG. 51
Experimental: FIG. 51 is a plot showing the pharmacodynamics of BRAF protein degradation in the inoculated CNS tumors. […] The experiment was conducted as described in Example 12.

A375 cells = experiment: A375 Cell Viability Assay (CTGlo), Example 16; format: cell-based, human; conditions: 72 h, 10-point dose series, in words (FIG. 83)
Experimental: The effect of compounds of the invention on cell viability was assessed based on the quantification of ATP using the CellTiter-Glo® 2.0 (referred to here as CTGlo) Cell Viability Assay (Catalog No. G9243, Promega, Madison, WI, USA), which signals the presence of metabolically active cells.
A375 cells were obtained from ATCC (Catalog No. CRL-1619, Manassas, VA, USA) (also referred to here as A375.1) and were maintained in DMEM, (Corning, Catalog No. 10-017-CV, Glendale, AZ, USA) supplemented with 10% fetal bovine serum (FBS; Catalog No. 16000044, Gibco, Grand Island, NY, USA) at 37° C. in an atmosphere of 5% CO2 in air. The cells were routinely sub-cultured to maintain cell density between 3×10^5-1.5×10^6 cells/mL. […] An aliquot of cell suspension was diluted 2× with a 0.4% Trypan Blue solution (Catalog No. 15250061, ThermoFisher Scientific, Waltham, MA, USA) and cell count was determined. […]
Test compounds were prepared by dissolving neat compounds in dimethyl sulfoxide (DMSO; Catalog No. D8418, Sigma-Aldrich, Inc., St. Louis, MO, USA) to generate 10 mM stock solution and stored at −20° C. […] CellTiter-Glo® reagent was then added to the cells and luminescence signals were measured after 4 hours using an EnVision™ Multimode plate reader (Perkin Elmer, Santa Clara, CA). […]

Row | Structure (SMILES) | survival rate [1] | median survival [1] | mice that have demonstrated end point cut offs and were terminated [1] | BRAF V600E levels in the brain tumor compared with encorafenib (BRAF V600E) | impact on viability of A375 cells (A375 cells)
1 | CCN(C)S(=O)(=O)Nc1ccc(F)c(Oc2ccc3ncn([C@H]4COC5(CCN(C6CC7(C6)CN(c6cc8c(cc6F)c(N6CCC(=O)NC6=O)nn8C)C7)CC5)C4)c(=O)c3c2)c1C#N [Compound 26, (3R)-3-[6-[2-cyano-3-[[ethyl(methyl)sulfamoyl]amino]-6-fluoro-phenoxy]-4-oxo-quinazolin-3-yl]-8-[2-[3-(2,4-dioxohexahydropyrimidin-1-yl)-5-fluoro-1-methyl-indazol-6-yl]-2-azaspiro[3.3]heptan-6-yl]-1-oxa-8-azaspiro[4.5]decane] | 75% | 91 days | two | much lower | significant impact on the viability of A375 cells
2 | CCN(C)S(=O)(=O)Nc1ccc(F)c(Oc2ccc3ncn(C4CC5(CCN(C6CC7(C6)CN(c6cc8c(cc6F)c(N6CCC(=O)NC6=O)nn8C)C7)CC5)C4)c(=O)c3c2)c1C#N (stereo not shown) [Compound 141, 6-[2-cyano-3-[[ethyl(methyl)sulfamoyl]amino]-6-fluoro-phenoxy]-3-[7-[2-[3-(2,4-dioxohexahydropyrimidin-1-yl)-5-fluoro-1-methyl-indazol-6-yl]-2-azaspiro[3.3]heptan-6-yl]-7-azaspiro[3.5]nonan-2-yl]-4-oxo-quinazoline] | 75% | 89.5 days | 2 mice | much lower | significant impact on the viability of A375 cells
